“And” between values parts separate entries of the source, which are not always exact repeats. Equal values may be shown once.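 Cultured in 96-well plates, cells were exposed to test compound for 48 hours across five concentrations. At the GI50, growth is halved. TGI: concentration producing complete growth inhibition.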
What was measured:
Experiment in all cases: growth of human tumour cells (NCI), 48 h
[1] = test system: A498 renal
[2] = test system: ACHN renal
[3] = test system: BT-549 breast
[4] = test system: DU-145 prostate
[5] = test system: HOP-92 NSCLC
[6] = test system: HS 578T breast
[7] = test system: MALME-3M melanoma
[8] = test system: OVCAR-4 ovarian
[9] = test system: RPMI-8226 leukemia
[10] = test system: RXF 393 renal
[11] = test system: SK-MEL-2 melanoma
[12] = test system: UACC-257 melanoma

SMILES	TGI [1]	TGI [2] [µM]	TGI [3] [µM]	TGI [4] [µM]	TGI [5] [µM]	TGI [6] [µM]	TGI [7]	TGI [8]	TGI [9]	TGI [10]	TGI [11]	TGI [12]	GI50 [1] [µM]	GI50 [5] [µM]	GI50 [7] [µM]	GI50 [8] [µM]	GI50 [9] [µM]	GI50 [10] [µM]	GI50 [11] [µM]
CC(C)(C)c1cc2c(O)c(c1)Cc1cc(C(C#N)(Cc3ccc4ccccc4c3)Cc3ccc4ccccc4c3)cc(c1O)Cc1cc(C(C)(C)C)cc(c1O)Cc1cc(C(C#N)(Cc3ccc4ccccc4c3)Cc3ccc4ccccc4c3)cc(c1O)C2	> 100 µM	> 100	> 100	> 100	> 100	> 100	> 100 µM	> 100 µM	> 100 µM	> 100 µM	> 100 µM	> 100 µM							
N#CC(=C1CCCCC1)c1nc2ccccc2o1	> 100 µM	> 100	89.1	> 100	> 100	> 100	> 100 µM	> 100 µM	71.3 µM	> 100 µM	> 100 µM	> 100 µM							
Cc1cc(N=Nc2c(O)ccc3ccccc23)ccc1N=Nc1cccc([N+](C)(C)C)c1	98.8 µM	> 84.7	15.7	48.2	> 100	47	35.2 µM	> 100 µM	> 46.5 µM	48.7 µM	47.3 µM	> 63.5 µM							
Cc1cccc(CC(Cc2c(C)cccc2C(=O)O)C(=O)O)c1 (configuration not stated)	> 100 µM	> 100	> 100	> 100		> 100	> 100 µM	> 100 µM	> 100 µM	> 100 µM	> 100 µM	> 100 µM							
CC1=CCC2C3(C)CCC2(C(C)C)C1C3 (configuration not stated) (tested in a mixture with another compound)	89.4 µM	36.9	45.8	68	58.3	38.2	> 100 µM	> 100 µM	56.7 µM	33.2 µM	32.2 µM	99.7 µM							
CCN(CC)CCNC(=O)c1ccc(I)cc1	84.9 µM	> 100	> 100	> 100	> 100	> 100	> 100 µM	> 100 µM	> 100 µM	> 100 µM	> 100 µM	> 100 µM							
O=C(Nc1c(C(F)(F)F)cc(-c2ccccc2)[nH]c1=O)N1CCOCC1	> 100 µM	> 100	> 100	> 100	> 100	> 100	> 100 µM	> 100 µM	> 100 µM	> 100 µM	> 100 µM	> 100 µM							
Cc1ccc2c(n1)C(=O)C=CC2=O	31.1 µM	8.63	31.5	30.7	13.7	> 78.5	16.8 µM	12.8 µM	11 µM	13.6 µM	32.3 µM	14.6 µM							
N#CC(C#N)=C(N)/C(C#N)=C/c1ccc2ccccc2n1	> 100 µM	39.6	91.1	> 100	> 100	65	> 100 µM	> 100 µM	> 100 µM	42.1 µM	> 100 µM	> 100 µM							
O=C1O[C@H]2[C@H](O)[C@@H](OC(=O)c3cc(O)c(O)c4c3[C@@H]3C1=CC(=O)C(O)(O)C3(O)O4)[C@H](OC(=O)c1cc(O)c(O)c(O)c1)O[C@@H]2CO (some centres not stated)	> 100 µM	> 100	> 100	> 100	> 100	> 100	> 100 µM	> 100 µM	> 100 µM	> 100 µM	> 100 µM	> 100 µM							
COC1C(O)C(C)OC(OC2C(Oc3cccc4c(O)c5c(=O)oc6ccc(C)c7c(=O)oc(c34)c5c67)OC(C)C(O)C2O)C1O (configuration not stated)	4.04 µM and 5.15 µM	46.1	7.83	53.6		20.4	5.22 µM and 5.75 µM	35.1 µM and 18.3 µM	15.9 µM and 6.88 µM	2.6 µM and 3.37 µM	1.93 µM and 2.56 µM	5.85 µM and 5.46 µM	1.22	2.43	1.83	11.5	1.25	0.536	0.695
COC(=O)C1c2c(c3ccccc3n2C(=O)OC)CCN2CCC1C(S(=O)(=O)c1ccccc1)C2=O (configuration not stated)	> 100 µM		> 100	> 100	> 100	> 100	> 100 µM		> 100 µM	> 100 µM	> 100 µM	> 100 µM							
COc1ccc(/C=C2\CCC(C)/C(=C\c3ccc(OC)c(OC)c3)C2=O)cc1OC (configuration not stated)	25.3 µM	16.7	20.3	21		88.3	22 µM		8.01 µM	24.2 µM	25.3 µM	21.5 µM							
COc1cc(/C=C2/SC(c3ccccc3)N(c3ccccc3)C2=O)cc(OC)c1OC (configuration not stated)	> 100 µM	> 100	> 100	> 100	> 100	> 100	> 100 µM	> 100 µM	66.6 µM	> 100 µM	> 100 µM	> 100 µM							
Cc1cc(-c2nc3ccccc3s2)ccc1N	> 94.5 µM	> 95.1	> 84.3	> 100	> 100	> 100	> 81.5 µM	> 84.1 µM	> 100 µM	98.7 µM	> 84 µM	> 100 µM							
Cc1nc2c(nc1C)-c1c(c3c(n1C)C(=O)CCC3)C(=O)C2=O	2.59 µM	1.66	0.289	2.44	2.94	9.62	0.669 µM	0.279 µM	0.636 µM	0.474 µM	1.29 µM	2.76 µM							
c1ccc(P(CCP(c2ccccn2)c2ccccn2)c2ccccc2)cc1	> 100 µM	> 100	> 100	> 100	> 69.9	> 100	> 100 µM	> 100 µM	40.6 µM	98 µM	66.3 µM	> 100 µM							
CC(C)OP(=O)(OC(C)C)/C(C#N)=C/c1ccco1	> 100 µM	> 100	> 100	> 100	> 100	> 100	> 100 µM	> 100 µM	> 100 µM	> 100 µM	> 100 µM	> 100 µM							

SMILES	TGI [1]	TGI [2] [µM]	TGI [3] [µM]	TGI [4] [µM]	TGI [5] [µM]	TGI [6] [µM]	TGI [7]	TGI [8]	TGI [9]	TGI [10]	TGI [11]	TGI [12]	GI50 [1] [µM]	GI50 [5] [µM]	GI50 [7] [µM]	GI50 [8] [µM]	GI50 [9] [µM]	GI50 [10] [µM]	GI50 [11] [µM]
O=C(N/N=C/c1ccc([N+](=O)[O-])o1)c1ccc(C(=O)N/N=C/c2ccc([N+](=O)[O-])o2)cc1	> 100 µM	> 100	> 100	> 100	> 100	> 100	48.7 µM	> 100 µM	26.1 µM	> 100 µM	> 100 µM								
CC(C)(C)OC(=O)N(O)CCCn1cnc2c(N)ncnc21	> 100 µM	> 100	> 100	> 100	> 100	> 100	> 100 µM	> 100 µM	> 100 µM	> 100 µM	> 100 µM	> 100 µM							
O=C(/C=C1\C[C@H]2C=Nc3ccccc3C(=O)N2C1)NCCCCNC(=O)/C=C1\C[C@H]2C=Nc3ccccc3C(=O)N2C1	32.9 µM	12.6	26.1	29.7	20.4	> 88.7	18 µM	26.1 µM	18.6 µM	19.2 µM	29.2 µM	27.1 µM							
C/C1=C/C(C)CC(C)OC(=O)C(C)NC(=O)C(Cc2ccc(O)c(I)c2)N(C)C(=O)C(C)NC(=O)C(C)C1 (configuration not stated)	< 0.0137 µM		0.737	> 58.1	0.0259	< 0.0392	3.45 µM		10.1 µM	< 0.0106 µM	5.67 µM	8.36 µM							
CC(=O)NNc1nc(C)c(C(/C=C/c2ccc([N+](=O)[O-])cc2)=N/NC(N)=S)s1	> 100 µM	> 100	> 100	> 100	> 100	> 100	> 100 µM	> 100 µM	> 100 µM	> 100 µM	> 100 µM	> 100 µM							
Brc1c(C#CCC(c2ccccc2)(c2ccccc2)c2ccccc2)ccc(C#CCC(c2ccccc2)(c2ccccc2)c2ccccc2)c1Br	> 100 µM	> 100	> 100	> 100	> 100	> 100	> 100 µM	> 100 µM	> 100 µM	> 100 µM	> 100 µM	> 100 µM							
Nc1ncc(Cl)c(NCC2(CO)CC(CCc3ccccc3)C2)n1 (configuration not stated)	> 100 µM	> 100	> 100	> 100	> 100	> 100	> 100 µM	> 100 µM	> 100 µM	> 100 µM	> 100 µM	> 100 µM							
CCN(CC)C(=S)SS(=O)(=O)c1ccc(Cl)cc1	> 100 µM	> 100	> 100	82	50.4	> 100	27.5 µM	> 100 µM	43.2 µM	39.2 µM	> 100 µM	58.8 µM							
COc1cc(C)cc2c1c(=O)c1ccccc1n2C	89.2 µM	> 100	> 100	> 100	91.8	78.9	> 100 µM	> 100 µM	66 µM	73.8 µM	49.9 µM	> 100 µM							
O=C(O)CNc1ccc(C(=O)O)cc1	> 100 µM	> 100	> 100	> 100	> 100	> 100	> 100 µM	> 100 µM	> 100 µM	> 100 µM	> 100 µM	> 100 µM							
CN(C)Cc1cc(C(C)(C)C)ccc1-c1ccc(C(C)(C)C)cc1CN(C)C	> 100 µM	> 100	> 100	> 100	> 100	> 100	> 100 µM	> 100 µM	> 100 µM	> 100 µM	> 100 µM	> 100 µM							
Cc1oc(N)c(S(=O)(=O)c2ccc(Cl)cc2)c1C	> 100 µM	> 100	60.5	> 100	> 100	> 100	> 100 µM	> 100 µM	> 100 µM	> 100 µM	> 100 µM	> 100 µM							
O=C(C[n+]1ccccc1)N/N=C(\Cc1nc2ccc([N+](=O)[O-])cc2[nH]c1=O)C(=O)Nc1cc(Cl)c(Cl)cc1Cl	> 100 µM	> 100	> 100	> 100	> 100	> 100	> 100 µM	> 100 µM	> 100 µM	> 100 µM	> 100 µM	> 100 µM							
CC1(C)CC(=O)C2=C(C1)NC1=C(C(=O)CC(C)(C)C1)C2c1ccc([N+](=O)[O-])cc1	> 100 µM	> 100	> 100	> 100	> 100	> 100		> 100 µM	> 100 µM	> 100 µM	> 100 µM	> 100 µM							
C/C=C\C(CC(=O)NCCC1CN(S(=O)(=O)C(F)(F)F)c2ccccc21)CC(=O)OC (configuration not stated)	> 100 µM	> 100	67.1	> 100	> 100	72.3	45.9 µM	> 100 µM	> 100 µM	> 100 µM	94 µM	> 100 µM							
O=C1CC(=O)NC(=NN2C(=O)/C(=C/c3ccccc3)N=C2c2ccccc2)N1	> 100 µM	> 100	77.1	> 100	> 100	> 100	> 100 µM	> 100 µM	> 100 µM	> 100 µM	> 100 µM	> 100 µM							
CC(=O)Oc1cc2c(c3ncccc13)OC(C)(C)C2	33 µM	23.9	> 100	28.7	27.1	24.9	23.4 µM	25.5 µM	> 100 µM	26.8 µM	44.6 µM	29.5 µM							
